{"source": "patent US20230181751A1", "about": "“FORMULATION OF PURE DIMETHOXY CURCUMIN-HUMAN SERUM ALBUMIN AND A PROCESS FOR THE PREPARATION THEREOF” (SREE CHITRA TIRUNAL INSTITUTE FOR MEDICAL SCIENCES AND …, priority 2020, published 2023)", "key": {"[1]": {"tested_on": "Fibroblast cell line (L929)", "assay": "MTT cytotoxicity assay, DMCHSA versus free DMC", "assay_type": "cell-based, mouse", "conditions": "similar molar concentrations, 24 h-48 h", "method": "Cancer cell lines (A549,MCF-7), Fibroblast cell line (L929), and primary cells (ECs and CCs) were cultured in 96-well plates containing 100 µl medium, kept this plate in CO2 incubator (5% CO2) at 37° C. for 24 h. DMCHSA solution was freshly prepared by dissolving the lyophilized conjugate in DMEM F12 medium and added (0.05 mg/ml, 0.1 mg/ml, 0.2 mg/ml, 0.4 mg/ml) in 96 well plate for 24 h. […] In all cultures standard MTT assay quantified viable cells after treating with DMCHSA/free DMC. Briefly, commercial MTT (0.5 mg/ml) reagent was dissolved in medium. This solution was filtered through a 0.22 µm filter and stored at 2 - 8° C. After removal of 100 µl medium, MTT dye solution was added and the plates were incubated at 37° C. for 4 h in a humidified 5% CO2 incubator, followed by 100 µl of DMSO added to each well, and mixed thoroughly to dissolve the dye crystals.\nThe absorbance was measured using an ELISA plate reader at 570 nm. High optical density readings corresponded to a high intensity of dye colour. The fractional absorbance was calculated by the formula: % Cell survival/PR = Mean absorbance in test × 100 Mean absorbance in control"}, "[2]": {"conditions": "cited from earlier work"}, "[3]": {"assay": "solubility", "assay_type": "physicochemical", "conditions": "water, before conjugation"}, "[4]": {"conditions": "cited from earlier work", "remark": "listed apart in the source"}, "[5]": {"assay": "storage stability of DMCHSA solution (UV and FTIR spectra)", "assay_type": "physicochemical", "method": "The liquid stability of the product was analysed at 24 h interval for 48 h or 72 h. The UV spectra recorded at different storage period are shown\nFTIR spectra are shown to substantiate the chemical degradation after 48 h of storage of DMCHSA solution.\nThe lyophilized samples were used for respective periods as prepared for liquid stability, were lyophilized and recorded FTIR spectrum.\nThus, liquid stability of DMCHSA stored for […] is evident."}}, "note": "Where two headings read alike, the source gives them in different places.", "data": [{"smiles": "COc1cc(/C=C/C(=O)CC(=O)/C=C/c2ccc(O)c(OC)c2)ccc1O", "note": "[DMC, (1E,6E)-1,7-bis(4-hydroxy-3-methoxyphenyl)hepta-1,6-dienne-3,5-dione]", "values": [{"measurement": "cytotoxicity on fibroblasts, DMCHSA compared with free DMC", "setting": "[1]", "value": "less cytotoxic"}, {"measurement": "solubility in acetone, DMSO and ethyl ether", "setting": "[2]", "value": "very soluble"}, {"measurement": "solubility in ethyl alcohol, glacial acetic acid and propylene glycol", "setting": "[2]", "value": "soluble"}, {"measurement": "solubility in water, petroleum ether and benzene", "setting": "[2]", "value": "poorly soluble"}, {"measurement": "solubility", "setting": "[3]", "value": 20, "unit": "µM"}, {"measurement": "half-life of DMC", "setting": "[4]; in the presence of protein", "value": "1 to 2", "unit": "h"}, {"measurement": "half-life of DMC", "setting": "[4]; physiological pH, without protein", "value": "a few minutes"}, {"measurement": "UV-Vis spectral stability", "setting": "[5]", "value": "degrading free curcumin in 2h"}]}]}
